According to ChEMBL document CHEMBL4680140, “Minor chemical modifications of the aminosteroid derivative RM-581 lead to major impact on its anticancer activity, metabolic stability and aqueous solubility” (Eur J Med Chem, 2020):
Converted amounts (≈) assume the structure as drawn.

How the values were obtained:
Format in all cases: physicochemical
[1] = Solubility of compound in PBS at pH 7.4 at 300 uM after 24 hrs by HPLC-UV analysis
[2] = Solubility of compound in PBS at pH 7.4
[3] = Solubility of compound in PBS at pH 7.4 by shake flask method

SMILES	solubility at 24 h, 300 µM [1]	solubility [2]	solubility thermodynamic [3]
CC(C)C(=O)Nc1ccc([N+](=O)[O-])c(C(F)(F)F)c1 [FLUTAMIDE]	19.9 µg/mL (≈ 72 µM)	19.9 µg/mL (≈ 72 µM)	–
COc1ccc(Cl)cc1C(=O)NCCc1ccc(S(=O)(=O)NC(=O)NC2CCCCC2)cc1 [GLYBURIDE]	6.7 µg/mL (≈ 13.6 µM)	–	5.6 µg/mL (≈ 11.3 µM)
